According to ChEMBL document CHEMBL2331125, “Anthraquinone Derivatives as Potent Inhibitors of c-Met Kinase and the Extracellular Signaling Pathway” (ACS Med Chem Lett, 2013):
The source made the active and inactive calls. The rule behind the calls is not given here.

Each compound was assayed against Hepatocyte growth factor receptor (Mus musculus) (UniProt P16056) (assay: Inhibition of TPR-Met phosphorylation in mouse BAF3 cells at 10 uM after 2 hrs by Western blot analysis).
Assay type: cell-based

Hepatocyte growth factor receptor (Mus musculus), sequence (P16056 whole entry): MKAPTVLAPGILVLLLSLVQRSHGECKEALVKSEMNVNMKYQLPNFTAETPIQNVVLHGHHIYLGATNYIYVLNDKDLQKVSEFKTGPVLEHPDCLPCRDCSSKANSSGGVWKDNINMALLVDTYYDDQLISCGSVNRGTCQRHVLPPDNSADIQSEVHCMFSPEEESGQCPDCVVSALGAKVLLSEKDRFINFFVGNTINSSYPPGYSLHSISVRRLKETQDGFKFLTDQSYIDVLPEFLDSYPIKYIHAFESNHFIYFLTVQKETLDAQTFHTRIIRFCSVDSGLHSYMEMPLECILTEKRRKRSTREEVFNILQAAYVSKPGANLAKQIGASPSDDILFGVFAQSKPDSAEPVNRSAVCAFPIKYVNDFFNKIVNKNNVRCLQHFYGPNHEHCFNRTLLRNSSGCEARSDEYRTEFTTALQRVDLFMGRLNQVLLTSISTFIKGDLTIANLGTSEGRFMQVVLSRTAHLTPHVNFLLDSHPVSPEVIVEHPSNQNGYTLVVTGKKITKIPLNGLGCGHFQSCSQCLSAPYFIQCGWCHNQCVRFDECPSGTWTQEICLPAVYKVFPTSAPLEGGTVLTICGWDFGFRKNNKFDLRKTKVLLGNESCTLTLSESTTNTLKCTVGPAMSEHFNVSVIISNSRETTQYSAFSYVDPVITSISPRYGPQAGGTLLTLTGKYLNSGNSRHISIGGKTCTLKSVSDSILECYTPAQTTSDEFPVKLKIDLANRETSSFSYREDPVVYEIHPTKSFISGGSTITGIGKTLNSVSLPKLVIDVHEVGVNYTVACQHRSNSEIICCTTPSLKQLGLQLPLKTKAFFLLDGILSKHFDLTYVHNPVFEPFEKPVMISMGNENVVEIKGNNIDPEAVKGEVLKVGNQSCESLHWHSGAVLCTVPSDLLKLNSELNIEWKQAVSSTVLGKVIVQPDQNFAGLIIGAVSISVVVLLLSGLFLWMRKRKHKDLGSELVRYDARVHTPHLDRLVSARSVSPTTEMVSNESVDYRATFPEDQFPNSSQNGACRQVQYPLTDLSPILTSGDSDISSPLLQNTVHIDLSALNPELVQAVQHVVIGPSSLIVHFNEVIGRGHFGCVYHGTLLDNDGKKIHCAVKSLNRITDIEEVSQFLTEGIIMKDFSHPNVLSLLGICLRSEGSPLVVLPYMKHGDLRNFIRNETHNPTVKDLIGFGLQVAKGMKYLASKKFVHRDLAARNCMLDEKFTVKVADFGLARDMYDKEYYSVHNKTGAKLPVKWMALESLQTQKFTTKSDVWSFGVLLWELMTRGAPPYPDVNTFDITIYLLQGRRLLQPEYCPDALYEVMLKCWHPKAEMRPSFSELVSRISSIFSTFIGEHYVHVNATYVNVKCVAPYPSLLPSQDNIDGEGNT

Compound | inhibition
CC(=O)Nc1ccc(-c2ccc(Nc3cc(S(=O)(=O)O)c(N)c4c3C(=O)c3ccccc3C4=O)cc2)cc1 | inactive
Nc1ccc(-c2ccc(Nc3cc(S(=O)(=O)O)c(N)c4c3C(=O)c3ccccc3C4=O)cc2)cc1 | inactive
Nc1c(S(=O)(=O)O)cc(Nc2ccc(-c3ccc(Nc4ncccn4)cc3)cc2)c2c1C(=O)c1ccccc1C2=O | inactive
Cc1cc(-c2ccc(Nc3cc(S(=O)(=O)O)c(N)c4c3C(=O)c3ccccc3C4=O)c(C)c2)ccc1N | inactive

The next lines start with the values.

inhibition | Compound
inactive | Nc1c(S(=O)(=O)O)cc(Nc2ccc(Cc3ccc(Nc4cc(S(=O)(=O)O)c(N)c5c4C(=O)c4ccccc4C5=O)cc3)cc2)c2c1C(=O)c1ccccc1C2=O
inactive | Cc1cc(-c2ccc(Nc3cc(S(=O)(=O)O)c(N)c4c3C(=O)c3ccccc3C4=O)c(C)c2)ccc1Nc1cc(S(=O)(=O)O)c(N)c2c1C(=O)c1ccccc1C2=O
inactive | Nc1c(S(=O)(=O)O)cc(Nc2ccc(-c3ccc(Nc4cc(S(=O)(=O)O)c(N)c5c4C(=O)c4ccccc4C5=O)cc3)cc2)c2c1C(=O)c1ccccc1C2=O
inactive | Cc1cc(Nc2cc(S(=O)(=O)O)c(N)c3c2C(=O)c2ccccc2C3=O)ccc1-c1ccc(Nc2cc(S(=O)(=O)O)c(N)c3c2C(=O)c2ccccc2C3=O)cc1C
